Among the data in the OligoGym collection are normalised inhibition (eCFP-eYFP dual reporter) values, retold here.

Oligonucleotides are written 5' to 3', each unit as a sugar letter and its base; * is a phosphorothioate linkage, no mark a phosphodiester; rarer units and linkages stand in square brackets, end groups in braces. Plain capitals give the bases only. d = 2'-deoxy (DNA); r = 2'-OH (RNA)
Also: test concentration or dose not given here.

The first data set deals with UBE2S. Nature of the data set: reporter assay of Huesken 2005. The settings on record: siRNA.
Regarding “sense rGrUrArUrGrCrArGrCrUrCrGrGrGrCrCrCrGrUdTdT / antisense rArCrGrGrGrCrCrCrGrArGrCrUrGrCrArUrArCdTdC”, the normalised inhibition (eCFP-eYFP dual reporter) was found to be 47%.
The same measure, in the same setting: with “sense rCrUrGrCrGrUrCrArArCrGrUrGrCrUrCrArArGdTdT / antisense rCrUrUrGrArGrCrArCrGrUrUrGrArCrGrCrArGdAdT” the figure was 67.8%.
Still for that read-out and setting: for “sense rCrGrCrArGrArCrCrCrArCrCrCrGrArUrGrGrCdTdT / antisense rGrCrCrArUrCrGrGrGrUrGrGrGrUrCrUrGrCrGdGdT” the value was 51.5%; for “sense rArCrArCrGrUrArCrUrGrCrUrGrArCrCrArUrCdTdT / antisense rGrArUrGrGrUrCrArGrCrArGrUrArCrGrUrGrUdCdG”, 59.3%; for “sense rCrArArGrUrGrCrCrUrGrCrUrGrArUrCrCrArCdTdT / antisense rGrUrGrGrArUrCrArGrCrArGrGrCrArCrUrUrGdAdT”, 63.5%.
The same measure, in the same setting: for “sense rArGrCrCrGrGrUrCrGrGrGrCrCrCrUrGrGrCrCdTdT / antisense rGrGrCrCrArGrGrGrCrCrCrGrArCrCrGrGrCrUdTdC” the value was 43%; for “sense rCrArCrCrCrArArGrGrGrCrUrArCrUrUrCrCrUdTdT / antisense rArGrGrArArGrUrArGrCrCrCrUrUrGrGrGrUrGdGdG”, 81.5%.
Substance “sense rArUrGrGrCrArUrCrArArGrGrUrCrUrUrUrCrCdTdT / antisense rGrGrArArArGrArCrCrUrUrGrArUrGrCrCrArUdCdG” had a normalised inhibition (eCFP-eYFP dual reporter) of 56.5%.
Regarding “sense rGrCrArCrUrCrArArCrGrArGrGrArGrGrCrGrGdTdT / antisense rCrCrGrCrCrUrCrCrUrCrGrUrUrGrArGrUrGrCdAdG”, the normalised inhibition (eCFP-eYFP dual reporter) is 48.5%.
The same measure, in the same setting: with “sense rCrUrGrGrGrGrArArGrGrArCrUrUrCrCrCrUrGdTdT / antisense rCrArGrGrGrArArGrUrCrCrUrUrCrCrCrCrArGdCdA” the figure was 40.4%.
The same measure, in the same setting: for “sense rUrCrCrCrCrArCrCrCrArArGrGrGrCrUrArCrUdTdT / antisense rArGrUrArGrCrCrCrUrUrGrGrGrUrGrGrGrGrAdGdG” the value was 48.9%.
For the substance “sense rCrCrCrArArCrGrArGrGrArGrGrArCrCrUrCrAdTdT / antisense rUrGrArGrGrUrCrCrUrCrCrUrCrGrUrUrGrGrGdAdA”, the normalised inhibition (eCFP-eYFP dual reporter) is 54%.
Still for that read-out and setting: with “sense rCrCrUrGrArGrGrGrGrArCrCrCrCrArUrArUrGdTdT / antisense rCrArUrArUrGrGrGrGrUrCrCrCrCrUrCrArGrGdGdC” the figure was 25.2%.
Take “sense rArUrCrUrUrCrCrArCrCrCrGrArArCrGrUrGrGdTdT / antisense rCrCrArCrGrUrUrCrGrGrGrUrGrGrArArGrArUdCdT”: the normalised inhibition (eCFP-eYFP dual reporter) was 31.6%.
“sense rArGrUrGrCrCrUrGrCrUrGrArUrCrCrArCrCrCdTdT / antisense rGrGrGrUrGrGrArUrCrArGrCrArGrGrCrArCrUdTdG” had a normalised inhibition (eCFP-eYFP dual reporter) of 55.7%.
In the case of “sense rGrCrCrArGrUrGrGrCrArCrUrGrArArGrCrUrUdTdT / antisense rArArGrCrUrUrCrArGrUrGrCrCrArCrUrGrGrCdCdA”, the normalised inhibition (eCFP-eYFP dual reporter) amounted to 57.9%.
Same read-out and setting: for “sense rCrCrGrArArCrGrUrGrGrGrCrGrCrCrArArUrGdTdT / antisense rCrArUrUrGrGrCrGrCrCrCrArCrGrUrUrCrGrGdGdT” the value was 44.9%; for “sense rCrUrUrUrCrCrCrArArCrGrArGrGrArGrGrArCdTdT / antisense rGrUrCrCrUrCrCrUrCrGrUrUrGrGrGrArArArGdAdC”, 33.9%; for “sense rArCrGrArGrGrArGrGrCrGrGrGrCrCrGrCrCrUdTdT / antisense rArGrGrCrGrGrCrCrCrGrCrCrUrCrCrUrCrGrUdTdG”, 44.3%.
On the same count and under the same terms, for “sense rArGrCrUrUrCrCrUrCrCrArCrCrGrArCrCrCrUdTdT / antisense rArGrGrGrUrCrGrGrUrGrGrArGrGrArArGrCrUdTdC” the value was 49.4%; for “sense rUrCrUrGrUrUrCrCrGrCrArUrGrArArArCrUrCdTdT / antisense rGrArGrUrUrUrCrArUrGrCrGrGrArArCrArGrAdCdC”, 42.3%; for “sense rCrCrCrGrUrCrUrGrCrUrCrArCrArGrArGrArUdTdT / antisense rArUrCrUrCrUrGrUrGrArGrCrArGrArCrGrGrGdCdC”, 70.1%.
Turning to “sense rGrUrCrArCrCrArUrCrGrArGrGrGrCrCrCrUrGdTdT / antisense rCrArGrGrGrCrCrCrUrCrGrArUrGrGrUrGrArCdCdT”, the normalised inhibition (eCFP-eYFP dual reporter) was determined as 45.1%.
On to “sense rUrGrArArArCrUrCrCrUrGrCrUrGrGrGrGrArAdTdT / antisense rUrUrCrCrCrCrArGrCrArGrGrArGrUrUrUrCrAdTdG”, for which the normalised inhibition (eCFP-eYFP dual reporter) amounted to 54%.
In turn, “sense rGrCrArCrUrGrArArGrCrUrUrCrCrUrCrCrArCdTdT / antisense rGrUrGrGrArGrGrArArGrCrUrUrCrArGrUrGrCdCdA” registered a normalised inhibition (eCFP-eYFP dual reporter) of 58.5%.
“sense rArCrUrGrArCrCrGrCrArGrArCrCrCrArCrCrCdTdT / antisense rGrGrGrUrGrGrGrUrCrUrGrCrGrGrUrCrArGrUdGdT” had a normalised inhibition (eCFP-eYFP dual reporter) of 43.6%.
With “sense rCrGrUrCrArArCrGrUrGrCrUrCrArArGrArGrGdTdT / antisense rCrCrUrCrUrUrGrArGrCrArCrGrUrUrGrArCrGdCdA”, the normalised inhibition (eCFP-eYFP dual reporter) is 63.1%.
Same read-out and setting: with “sense rCrGrArGrUrCrUrGrCrArCrUrCrArArCrGrArGdTdT / antisense rCrUrCrGrUrUrGrArGrUrGrCrArGrArCrUrCrGdGdG” the figure was 70.6%; with “sense rUrUrCrCrCrArArCrGrArGrGrArGrGrArCrCrUdTdT / antisense rArGrGrUrCrCrUrCrCrUrCrGrUrUrGrGrGrArAdAdG”, 41.6%.
Still for that read-out and setting: with “sense rGrGrGrCrUrGrArGrGrGrUrCrCrCrArUrGrGrCdTdT / antisense rGrCrCrArUrGrGrGrArCrCrCrUrCrArGrCrCrCdCdT” the figure was 45.7%.

The next data set has as its target UBE2B. Briefly: reporter assay of Huesken 2005. Conditions: siRNA.
As to “sense rGrArArGrArArUrArUrCrCrArArArUrArArArCdTdT / antisense rGrUrUrUrArUrUrUrGrGrArUrArUrUrCrUrUrCdAdG”, the normalised inhibition (eCFP-eYFP dual reporter) came out at 77.7%.
Still for that read-out and setting: for “sense rGrArGrArArArArGrArGrUrUrUrCrGrGrCrCrAdTdT / antisense rUrGrGrCrCrGrArArArCrUrCrUrUrUrUrCrUrCdAdT” the value was 82.7%; for “sense rArCrGrArGrArArUrArUrGrArGrArArArArGrAdTdT / antisense rUrCrUrUrUrUrCrUrCrArUrArUrUrCrUrCrGrUdTdT”, 84.2%; for “sense rArUrCrCrArArArUrGrUrGrUrArUrGrCrUrGrAdTdT / antisense rUrCrArGrCrArUrArCrArCrArUrUrUrGrGrArUdGdA”, 73%.
The same measure, in the same setting: for “sense rGrCrUrGrGrArUrGrArArCrCrGrArArUrCrCrUdTdT / antisense rArGrGrArUrUrCrGrGrUrUrCrArUrCrCrArGrCdAdG” the value was 81.5%; for “sense rGrUrArCrUrUrUrUrArArArCrUrArGrUrArArUdTdT / antisense rArUrUrArCrUrArGrUrUrUrArArArArGrUrArCdCdA”, 86.2%.
Same read-out and setting: for “sense rCrArGrUrGrGrCrGrCrArCrCrArUrCrUrGrArAdTdT / antisense rUrUrCrArGrArUrGrGrUrGrCrGrCrCrArCrUrGdAdC” the value was 61.8%.
The substance “sense rArCrArArGrArGrGrArCrCrCrArCrCrUrGrUrGdTdT / antisense rCrArCrArGrGrUrGrGrGrUrCrCrUrCrUrUrGrUdAdA” registered a normalised inhibition (eCFP-eYFP dual reporter) of 61.1%.
The substance “sense rCrUrUrCrArGrArArUrCrGrArUrGrGrArGrUrCdTdT / antisense rGrArCrUrCrCrArUrCrGrArUrUrCrUrGrArArGdGdA” yielded a normalised inhibition (eCFP-eYFP dual reporter) of 72.2%.
Still for that read-out and setting: for “sense rUrUrUrCrUrGrArArGrArArUrArUrCrCrArArAdTdT / antisense rUrUrUrGrGrArUrArUrUrCrUrUrCrArGrArArAdAdT” the value was 82.5%; for “sense rGrArArCrCrGrArArUrCrCrUrArArCrArGrUrCdTdT / antisense rGrArCrUrGrUrUrArGrGrArUrUrCrGrGrUrUrCdAdT”, 72.7%.
Still for that read-out and setting: for “sense rUrCrCrArArArUrArArArCrCrArCrCrArArCrUdTdT / antisense rArGrUrUrGrGrUrGrGrUrUrUrArUrUrUrGrGrAdTdA” the value was 61.8%; for “sense rArArArCrUrArGrUrArArUrArGrArArUrUrUrUdTdT / antisense rArArArArUrUrCrUrArUrUrArCrUrArGrUrUrUdAdA”, 47.5%.
Same read-out and setting: for “sense rGrArGrArArUrArUrGrArGrArArArArGrArGrUdTdT / antisense rArCrUrCrUrUrUrUrCrUrCrArUrArUrUrCrUrCdGdT” the value was 83.6%.
In the case of “sense rArGrCrCrArArUrArGrCrCrArGrGrCrArGrCrAdTdT / antisense rUrGrCrUrGrCrCrUrGrGrCrUrArUrUrGrGrCrUdGdG”, the normalised inhibition (eCFP-eYFP dual reporter) amounted to 75.9%.
Still for that read-out and setting: with “sense rArGrCrCrArGrGrCrArGrCrArCrArGrCrUrUrUdTdT / antisense rArArArGrCrUrGrUrGrCrUrGrCrCrUrGrGrCrUdAdT” the figure was 71.4%; with “sense rCrGrArGrArArUrArUrGrArGrArArArArGrArGdTdT / antisense rCrUrCrUrUrUrUrCrUrCrArUrArUrUrCrUrCrGdTdT”, 73.5%.
Take “sense rGrArArGrGrGrArCrArCrCrUrUrUrUrGrArArGdTdT / antisense rCrUrUrCrArArArArGrGrUrGrUrCrCrCrUrUrCdTdG”: the normalised inhibition (eCFP-eYFP dual reporter) turned out to be 79.8%.
On the same count and under the same terms, for “sense rArUrUrUrUrCrUrGrArArGrArArUrArUrCrCrAdTdT / antisense rUrGrGrArUrArUrUrCrUrUrCrArGrArArArArUdTdC” the value was 63.7%.
